In ChEMBL document CHEMBL3580535, “The biological characteristics of a novel camptothecin-artesunate conjugate” (Bioorg Med Chem Lett, 2015):
Calls of active or inactive are those of the source. No cut-off for these calls is given here.

Key:
[1] = molecular target: T1, Albumin (Bos taurus, UniProt P02769); experiment: Binding affinity to bovine serum albumin assessed as quenching constant at 310K by fluorescence spectroscopy; format: ADME; conditions: cattle, isolated protein
[2] = molecular target: T1, Albumin; experiment: Binding affinity to bovine serum albumin assessed as Stem-Volmer quenching constant at 298K by fluorescence spectroscopy; format: ADME; conditions: cattle, isolated protein
[3] = tested on: Mus musculus; experiment: Toxicity in BALB/c nude mouse assessed as body weight at 0.023 mmol/kg, ip administered every 2 days for 3 times measured on day 6 (reference value: 17.5 to 17.9 gms); format: organism-based; conditions: in vivo
[4] = tested on: MCF7; experiment: Cytotoxicity against human MCF7 cells assessed as inhibition of cell viability after 48 hrs by MTT assay; format: functional, cell-based
[5] = molecular target: Serotransferrin (Homo sapiens) (UniProt P02787); experiment: Binding affinity to transferrin (unknown origin) assessed as Stem-Volmer quenching constant at 298K by fluorescence spectroscopy
Serotransferrin (Homo sapiens), sequence (P02787 whole entry): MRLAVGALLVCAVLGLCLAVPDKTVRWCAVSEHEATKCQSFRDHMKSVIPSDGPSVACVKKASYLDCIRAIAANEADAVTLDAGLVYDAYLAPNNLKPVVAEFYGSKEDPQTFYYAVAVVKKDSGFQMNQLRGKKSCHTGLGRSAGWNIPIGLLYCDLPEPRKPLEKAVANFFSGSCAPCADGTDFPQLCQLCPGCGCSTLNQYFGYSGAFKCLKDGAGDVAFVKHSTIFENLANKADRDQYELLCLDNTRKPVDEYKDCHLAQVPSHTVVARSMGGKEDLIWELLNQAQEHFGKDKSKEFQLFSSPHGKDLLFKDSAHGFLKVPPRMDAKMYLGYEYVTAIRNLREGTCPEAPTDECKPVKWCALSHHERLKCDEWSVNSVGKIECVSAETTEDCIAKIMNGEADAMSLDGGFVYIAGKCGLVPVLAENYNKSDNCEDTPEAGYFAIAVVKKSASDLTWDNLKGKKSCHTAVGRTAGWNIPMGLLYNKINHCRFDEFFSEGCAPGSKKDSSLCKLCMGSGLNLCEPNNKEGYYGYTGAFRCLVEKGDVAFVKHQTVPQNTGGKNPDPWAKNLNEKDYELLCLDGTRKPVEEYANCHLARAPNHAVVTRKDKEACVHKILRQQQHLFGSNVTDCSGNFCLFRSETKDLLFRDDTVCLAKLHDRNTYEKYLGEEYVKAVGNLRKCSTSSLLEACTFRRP

[6] = molecular target: T1, Albumin; experiment: Binding affinity to bovine serum albumin assessed as Stem-Volmer quenching constant at 310K by fluorescence spectroscopy; format: ADME; conditions: cattle, isolated protein
[7] = molecular target: T1, Albumin; experiment: Binding affinity to bovine serum albumin assessed as quenching constant at 298K by fluorescence spectroscopy; format: ADME; conditions: cattle, isolated protein
[8] = molecular target: Serotransferrin (Homo sapiens) (UniProt P02787); experiment: Effect on transferrin (unknown origin) conformation at 4 to 20 uM by synchronous fluorescence spectroscopy
[9] = molecular target: Serotransferrin (Homo sapiens) (UniProt P02787); experiment: Binding affinity to transferrin (unknown origin) assessed as Stem-Volmer quenching constant at 310K by fluorescence spectroscopy
[10] = tested on: SMMC-7721; experiment: Cytotoxicity against human SMMC7721 cells assessed as inhibition of cell viability after 48 hrs by MTT assay; format: functional, cell-based
[11] = tested on: Mus musculus; experiment: Toxicity in BALB/c nude mouse assessed as animal death at 0.023 mmol/kg, ip administered every 2 days for 3 times measured on day 6; format: organism-based; conditions: in vivo, 48 h
[12] = tested on: Mus musculus; experiment: Toxicity in mouse assessed as body weight loss at 0.43 mmol, ip; format: organism-based; conditions: in vivo
[13] = tested on: MCF7; experiment: Antitumor activity against human MCF7 cells xenografted in BALB/c nude mouse assessed as decrease in tumor volume at 0.023 mmol/kg, ip administered every 2 days for 3 times measured after day 6; format: functional
[14] = tested on: Mus musculus; experiment: Toxicity in mouse assessed as animal death at 0.43 mmol, ip; format: organism-based; conditions: in vivo
[15] = tested on: Mus musculus; experiment: Toxicity in mouse assessed as animal death at 0.43 to 1.72 mmol, ip; format: organism-based; conditions: in vivo
[16] = Half life in PBS solution at pH 7.4; format: ADME
[17] = tested on: Mus musculus; experiment: Toxicity in mouse assessed as body weight loss at 1.72 mmol, ip; format: organism-based; conditions: in vivo
[18] = Half life in mouse plasma; format: ADME, cell-free

T1 sequence (P02769 whole entry): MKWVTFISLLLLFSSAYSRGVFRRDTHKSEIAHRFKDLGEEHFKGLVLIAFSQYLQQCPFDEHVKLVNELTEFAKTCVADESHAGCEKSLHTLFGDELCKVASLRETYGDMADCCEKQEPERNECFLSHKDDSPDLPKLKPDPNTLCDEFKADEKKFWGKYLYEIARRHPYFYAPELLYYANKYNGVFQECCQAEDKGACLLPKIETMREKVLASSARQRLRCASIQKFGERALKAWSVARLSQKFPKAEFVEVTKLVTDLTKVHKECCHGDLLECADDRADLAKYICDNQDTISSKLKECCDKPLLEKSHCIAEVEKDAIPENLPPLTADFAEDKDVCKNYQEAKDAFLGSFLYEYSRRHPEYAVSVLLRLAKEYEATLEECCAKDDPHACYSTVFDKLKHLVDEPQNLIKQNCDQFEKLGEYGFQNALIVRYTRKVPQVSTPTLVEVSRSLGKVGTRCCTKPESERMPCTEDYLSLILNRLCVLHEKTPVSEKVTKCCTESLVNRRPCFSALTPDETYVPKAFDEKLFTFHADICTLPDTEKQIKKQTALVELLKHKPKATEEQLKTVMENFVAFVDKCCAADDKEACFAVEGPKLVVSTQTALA

| Compound | Kq [1] | KSV [2] | Activity [3] | inhibition [4] | KSV [5] | KSV [6] | Kq [7] | Activity [8] | KSV [9] | inhibition [10] | Activity [11] | Activity [12] | inhibition in vivo at 23 µmol/kg [13] | Activity [14] | Activity [15] | half-life [16] | Activity [17] | half-life [18] |
| --- | --- | --- | --- | --- | --- | --- | --- | --- | --- | --- | --- | --- | --- | --- | --- | --- | --- | --- |
| CC[C@@]1(O)C(=O)OCc2c1cc1n(c2=O)Cc2cc3ccccc3nc2-1 [CAMPTOTHECIN] | 3.345 ×10¹² L/mol/s | 3.626 ×10⁴ L/mol | 11.3 g | Active | 4.35 ×10⁴ L/mol | 3.345 ×10⁴ L/mol | 3.626 ×10¹² L/mol/s | inactive | 2.62 ×10⁴ L/mol | Active | Toxic | Toxic | 45.3% | Toxic |  |  |  |  |
| C[C@H]1[C@H](OC(=O)CCC(=O)O)O[C@@H]2O[C@@]3(C)CC[C@H]4[C@H](C)CC[C@@H]1[C@@]24OO3 [ARTESUNATE] |  |  | 16.1 g | Active |  |  |  |  |  | Active | Non-toxic | Toxic |  |  |  |  |  |  |
| CC[C@@]1(O)C(=O)OCc2c1cc1n(c2=O)Cc2cc3c(CN(C)C)c(O)ccc3nc2-1 [TOPOTECAN] |  |  | 13.6 g |  |  |  |  |  |  |  | Toxic |  | 70.2% |  |  |  |  |  |
| CC[C@@]1(OC(=O)CCC(=O)O[C@@H]2O[C@@H]3O[C@@]4(C)CC[C@H]5[C@H](C)CC[C@@H]([C@H]2C)[C@@]35OO4)C(=O)OCc2c1cc1n(c2=O)Cc2cc3c(CN(C)C)c(O)ccc3nc2-1 | 1.03 ×10¹² L/mol/s | 2.27 ×10⁴ L/mol | 15.5 g | Dose-dependent effect | 2.36 ×10⁴ L/mol | 1.03 ×10⁴ L/mol | 2.27 ×10¹² L/mol/s | inactive | 2.22 ×10⁴ L/mol | Dose-dependent effect | Non-toxic |  | 50.2% |  | Non-toxic | 15 h | Toxic | 4 h |
